Results reported in the NIST ThermoML archive (doi:10.1021/acs.jced.7b00347).

Assay: mn = molality of the nth substance listed, in mol/kg
Settings: for surface tension liquid-gas: Ring tensiometer; for electrical conductivity: 100 kPa, Liquid, Alternating current cell with electrodes

CCCCCCCC[NH+](CCO)CC(C)O.[Cl-] (stereo not given) + O
Settings	electrical conductivity [S/m]	surface tension liquid-gas [mN/m]
303.15 K, m1 = 1.867e-05	–	53.53
303.15 K, m1 = 1.87e-05	0.00091	–
303.15 K, m1 = 3.73e-05	0.00101	–
303.15 K, m1 = 3.733e-05	–	47.58
303.15 K, m1 = 5.6e-05	0.0011	–
303.15 K, m1 = 7.47e-05	0.0012	–
303.15 K, m1 = 9.33e-05	0.00129	–
303.15 K, m1 = 9.334e-05	–	40.08
303.15 K, m1 = 0.000112	0.00139	–
303.15 K, m1 = 0.0001307	0.00149	–
303.15 K, m1 = 0.0001493	0.00158	–
303.15 K, m1 = 0.000168	0.00168	–
303.15 K, m1 = 0.0001867	0.00177	34.17
303.15 K, m1 = 0.0002053	0.00187	–
303.15 K, m1 = 0.000224	0.00197	–
303.15 K, m1 = 0.0002427	0.00206	–
303.15 K, m1 = 0.0002614	0.00216	–
303.15 K, m1 = 0.00028	0.00225	31.17
303.15 K, m1 = 0.0002987	0.00235	–
303.15 K, m1 = 0.0003174	0.00245	–
303.15 K, m1 = 0.000336	0.00254	–
303.15 K, m1 = 0.0003472	–	29.47
303.15 K, m1 = 0.0003547	0.00264	–
303.15 K, m1 = 0.0003734	0.00273	–
303.15 K, m1 = 0.000392	0.00283	–
303.15 K, m1 = 0.0004166	0.00292	–
303.15 K, m1 = 0.0004412	0.00302	–
303.15 K, m1 = 0.000448	–	29.31
303.15 K, m1 = 0.0004658	0.00311	–
303.15 K, m1 = 0.0004905	0.00321	–
303.15 K, m1 = 0.0005151	0.0033	–
303.15 K, m1 = 0.0005397	0.0034	–
303.15 K, m1 = 0.0005643	0.00349	–
303.15 K, m1 = 0.0005889	0.00359	–
303.15 K, m1 = 0.0006135	0.00368	–
303.15 K, m1 = 0.0006381	0.00378	–
303.15 K, m1 = 0.0006627	0.00387	–
303.15 K, m1 = 0.0006873	0.00397	–
303.15 K, m1 = 0.0007119	0.00406	–
303.15 K, m1 = 0.0007365	0.00416	–
303.15 K, m1 = 0.0007611	0.00425	–
303.15 K, m1 = 0.0007857	0.00435	–
303.15 K, m1 = 0.0008104	0.00444	–
303.15 K, m1 = 0.000835	0.00454	–
303.15 K, m1 = 0.0008596	0.00463	–
303.15 K, m1 = 0.0008842	0.00473	–
303.15 K, m1 = 0.0009088	0.00482	–
303.15 K, m1 = 0.0009334	0.00492	28.79
303.15 K, m1 = 0.001867	–	28.54
303.15 K, m1 = 0.0028	–	28.22
303.15 K, m1 = 0.003733	–	28.02
308.15 K, m1 = 1.867e-05	–	51.25
308.15 K, m1 = 1.87e-05	0.00111	–
308.15 K, m1 = 3.733e-05	–	45.75
308.15 K, m1 = 4.28e-05	0.00126	–
308.15 K, m1 = 6.7e-05	0.00141	–
308.15 K, m1 = 9.11e-05	0.00156	–
308.15 K, m1 = 9.334e-05	–	38.42
308.15 K, m1 = 0.0001152	0.00171	–
308.15 K, m1 = 0.0001394	0.00186	–
308.15 K, m1 = 0.0001635	0.00201	–
308.15 K, m1 = 0.0001867	–	32.93
308.15 K, m1 = 0.0001877	0.00216	–
308.15 K, m1 = 0.0002118	0.00231	–
308.15 K, m1 = 0.000236	0.00246	–
308.15 K, m1 = 0.0002601	0.00261	–
308.15 K, m1 = 0.0002842	0.00276	–
308.15 K, m1 = 0.0002949	–	29.72
308.15 K, m1 = 0.0003084	0.00291	–
308.15 K, m1 = 0.0003325	0.00306	–
308.15 K, m1 = 0.0003472	–	28.63
308.15 K, m1 = 0.0003567	0.00321	–
308.15 K, m1 = 0.0003808	0.00336	28.46
308.15 K, m1 = 0.0004099	0.00348	–
308.15 K, m1 = 0.000439	0.0036	–
308.15 K, m1 = 0.0004681	0.00373	–
308.15 K, m1 = 0.0004972	0.00385	–
308.15 K, m1 = 0.0005262	0.00397	–
308.15 K, m1 = 0.0005553	0.0041	–
308.15 K, m1 = 0.0005844	0.00422	–
308.15 K, m1 = 0.0006135	0.00434	–
308.15 K, m1 = 0.0006426	0.00447	–
308.15 K, m1 = 0.0006716	0.00459	–
308.15 K, m1 = 0.0007007	0.00471	–
308.15 K, m1 = 0.0007298	0.00483	–
308.15 K, m1 = 0.0007589	0.00496	–
308.15 K, m1 = 0.000788	0.00508	–
308.15 K, m1 = 0.0008171	0.0052	–
308.15 K, m1 = 0.0008461	0.00533	–
308.15 K, m1 = 0.0008752	0.00545	–
308.15 K, m1 = 0.0009043	0.00557	–
308.15 K, m1 = 0.0009334	0.0057	27.95
308.15 K, m1 = 0.001867	–	27.78
308.15 K, m1 = 0.0028	–	27.44
308.15 K, m1 = 0.003733	–	27.36
